One test has as its system rat mesangial cells. Nature of the test: IP3 formation ([3H]-inositol labeled mesangial cells) in response to LTD4 or LXA4. The class given is cell-based. Particulars: Mesangial cell, 5 s. An excerpt: Statistical: ANOVA with Bonferroni modification for multiple pre-planned comparisons was used, within each group and between groups, to compare the changes in various whole kidney and microcirculatory indices which occurred from one period to another. In phosphoinositide generation studies, increases in [^3 H]-IP3 CPMs in agonist-treated cells were compared to vehicle-treated controls using upaired students t-test. Differences were considered significant at a p value ≤0.05. All values are reported as means ± SEM.
The isolated glomeruli were harvested from the surface of the 75 μm filter and washed twisce with the Hank's Media. […] Mesangial cell colonies were subcultured in 60 mm culture dishes, and experiments were carried out in cells from passages 2 to 12.
(§1) To label mesangial cells with [^3 H]-Inositol, cells grown to confluence in 60 mm culture dishes (10^6 cells/dish) were cultured in RPMI, supplemented with 10% dialyzed fetal calf serum and [^3 H]-inositol (1 μCi/ml) in a total incubation volume of 5 ml.
Reactions were terminated by the addition of cold 10% trichloroacetic acid (TCA), the supernatants subjected to ether extraction, and the aqueous phase titrated to neutral pH using 0.1 M Tris base. […] To ensure the reliability of the separation technique, the same methods for extraction and separation were applied to known amounts of [^3 H]-IP1, [^3 H]IP2, and [^3 H]-IP3 standards (New England Nuclear) mixed in a ratio of 3:2:1, respectively, and subjected to separation by HPLC.

The subject of another test is LTD4 receptor. Description: Inhibition of LTD4-induced IP3 formation in mesangial cells. The class given is cell-based, rat. How it is done:
Mesangial Cell Culture: Rat mesangial cells were isolated and cultured as described previously (Harris, R. C., et al., J. Clin. Invest. 82:1028-1039(1988). Briefly, kidneys were exicesed from two young Sprague-Dawly rats under sterile conditions, and the cortices removed, minced, and washed several times in Hank's Balanced Salt Solution, containing 10 mM HEPES pH 7.4, amphotericin (0.25 μg/ml), and gentamicin (50 μg/ml). The tissue was then passed through consecutive sterilized stainless mesh filters with pore sizes of 212 μm, 150 μm, and then onto the final mesh of 75 μm. The isolated glomeruli were harvested from the surface of the 75 μm. The isolated glomeruli were harvested from the surface of the 75 μm filter and washed twisce with the Hank's Media. The glomeruli were suspended in RPMI 1640 Medium with 15% Fetal Bovine Serum (Givco), penicillin (100 μ/ml) and streptomycin (100 μg/ml) (Gibco), plated into 100 mm cell culture petri dishes, and incubated at 37° C. in a humidified atmosphere of 95% air and […] 5% CO2. Mesangial cell colonies were subcultured in 60 mm culture dishes, and experiments were carried out in cells from passages 2 to 12. The criteria used to establish the identify of mesangial cells were as described previously (Harris, R. C., et al., J. Clin. Invest. 82:1028-1039 (1988)). Cells were routinely grown in RPMI-1640, supplemented with 20% fetal calf serum, penicillin 100 μ/ml, and streptomycin 100 μg/ml. […] All eicosanoids were stored under argon at -70° C. in methanol and their purity and quantity verified periodically by ultraviolet scanning and high pressure liquid chromatography (Serhan, C. N. et al., J. Biol. Chem. 261:16340 (1986)).
as §1
Reactions were terminated by the addition of cold 10% trichloroacetic acid (TCA), the supernatants subjected to ether extraction, and the aqueous phase titrated to neutral pH using 0.1 M Tris base. [^3 H]-IP1, [^3 H]-IP2, and [^3 H]-IP3 in the aqueous phase were separated and quantitated by anion exchange column chromatography, using the method of Berridge et al. (Berridge, M. J., Biochem. J. 220:345-360 (1984)). To ensure the reliability of the separation technique, the same methods for extraction and separation were applied to known amounts of [^3 H]-IP1, [^3 H]IP2, and [^3 H]-IP3 standards (New England Nuclear) mixed in a ratio of 3:2:1, respectively, and subjected to separation by HPLC. The latter was performed using established methodology described previously (Cunha-Melo, J. R., et al., J. Biol. Chem. 262:11455-11463 (1987)).

Test [1] addresses T1, mesangial cell LTD4 receptor (Rattus norvegicus, UniProt Q924T8).
T1 sequence (Q924T8 1-339): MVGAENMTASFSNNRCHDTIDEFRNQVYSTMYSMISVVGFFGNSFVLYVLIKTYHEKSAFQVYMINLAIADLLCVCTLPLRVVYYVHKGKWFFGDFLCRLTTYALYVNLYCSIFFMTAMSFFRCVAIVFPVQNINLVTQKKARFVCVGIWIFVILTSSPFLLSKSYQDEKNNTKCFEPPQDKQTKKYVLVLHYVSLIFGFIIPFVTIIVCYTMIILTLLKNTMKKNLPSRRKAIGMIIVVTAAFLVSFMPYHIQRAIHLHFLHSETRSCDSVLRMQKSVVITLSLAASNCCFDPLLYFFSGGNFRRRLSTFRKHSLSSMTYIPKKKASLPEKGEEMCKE
The conditions noted are these: 10 nM [3H]-LTD4.
Protocol: (§2) Mesangial Cell Culture: Rat mesangial cells were isolated and cultured as described previously (Harris, R. C., et al., J. Clin. Invest. 82:1028-1039(1988). Briefly, kidneys were exicesed from two young Sprague-Dawly rats under sterile conditions, and the cortices removed, minced, and washed several times in Hank's Balanced Salt Solution, containing 10 mM HEPES pH 7.4, amphotericin (0.25 μg/ml), and gentamicin (50 μg/ml). The tissue was then passed through consecutive sterilized stainless mesh filters with pore sizes of 212 μm, 150 μm, and then onto the final mesh of 75 μm. The isolated glomeruli were harvested from the surface of the 75 μm. The isolated glomeruli were harvested from the surface of the 75 μm filter and washed twisce with the Hank's Media. The glomeruli were suspended in RPMI 1640 Medium with 15% Fetal Bovine Serum (Givco), penicillin (100 μ/ml) and streptomycin (100 μg/ml) (Gibco), plated into 100 mm cell culture petri dishes, and incubated at 37° C. in a humidified atmosphere of 95% air and 5% air and 5% CO2. Mesangial cell colonies were subcultured in 60 mm culture dishes, and experiments were carried out in cells from passages 2 to 12. […] Cells were routinely grown in RPMI-1640, supplemented with 20% fetal calf serum, penicillin 100 μ/ml, and streptomycin 100 μg/ml.
(§3) Binding studies were routinely performed at 4° C. […] The cells were then dissolved with 1.0 ml of 1.0 N NaOH, neutralized with HCl, dissolved in 10 ml of Aquasol (New England Nuclear, Boston, MA), and the bound radioactivity was determined using a scintillation counter (Beckman Instruments). […] Cell density was determined by counting cells from replicate wells, using a Coulter Counter ZBi (Coulter Electronics, Inc., Hialeah, Fla.).

For another test, the system named is guinea pig lung. The conditions noted are these: cited from earlier work.
Test [2] concerns guinea pig ileum or trachea. Particulars: cited from earlier work.
A further test concerns hamster cheek pouch. The conditions noted are these: topical; cited from earlier work.
Another test deals with neutrophils. The conditions noted are these: cited from earlier work.
For the next test, the system named is renal arterioles. Particulars: renal artery, anesthetized rats; cited from earlier work.
The target of test [3] is T1, mesangial cell LTD4 receptor. Description: biochemical.
Protocol: as §2, §3

A word on the IC50: it is the midpoint of a concentration-inhibition curve. A low value points to greater potency in that assay. Turning to `CCCCC[C@H](O)/C=C/C=C\C=C\C=C\[C@@H](O)[C@@H](O)CCCC(=O)O` [LXA4, (5S,6R,15S)-5,6,15-trihydroxy-7,9,13-trans-11-cis-eicosatetraenoic acid], the activation at 0.001 µM with rat mesangial cells (1 nM, 5 sec, n=3, p<0.05, read-out: increase in [3H]-IP3 counts over controls) amounted to 46 ± 14%. Further, in the test with rat mesangial cells (10 nM LXA4, 5 sec, n=6, p<0.05, read-out: increase in [3H]-IP3 counts over controls), the activation at 0.01 µM was found to be 50 ± 21%. In the test with rat mesangial cells (50 nM LXA4, 5 sec, n=3, p<0.05, read-out: increase in [3H]-IP3 counts over controls), the activation at 0.05 µM was 44 ± 22%. For the same compound, in the test with rat mesangial cells (100 nM, 5 sec, n=5, p<0.05, read-out: increase in [3H]-IP3 counts over controls), the activation at 0.1 µM was 45 ± 26%. Moreover, the “Inhibition of LTD4-induced IP3 generation” value with LTD4 receptor (pre-incubation with 100 nM LXA4 for 10 min, then 10 nM LTD4 (n=3)) is recorded as “completely prevented”. Also, in the test on LTD4 receptor (preexposure to 100 nM LXA4 for 10 minutes), the “Inhibition of LTD4-induced stimulation of IP3 formation (FIG. 2)” value was “abrogation”. In [1], the “Competition for [3H]-LTD4 binding compared with LTB4” value is on record as “several-fold greater than that of the non-peptidoleukotriene, LTB4” and the “Competition for [3H]-LTD4 binding compared with LTE4” value is “equipotent to that of LTE4”. In addition, the “Contraction of pulmonary smooth muscle” value in the test on guinea pig lung is recorded as “contract pulmonary smooth muscle”. Moreover, the “Contraction of ileum or trachea” value in test [2] is “not guinea pig ileum or trachea”. For the same compound, in the test with hamster cheek pouch, the Arteriolar dilation entry was “pronounced arteriolar dilation” and the Venular diameters result was “does not change venular diameters”. Moreover, in the test on neutrophils, the “Neutrophil superoxide generation, elastase release and leukocyte chemotaxis” value is “induce neutrophils to generate superoxide radicals, release elastase, and promote chemotaxis by leukocytes”. In the test with renal arterioles, the “Glomerular capillary ultrafiltration coefficient (Kf)” value is given as “reduces” and the Renal arteriole response result is on record as “elicits vasodilator responses”. The IC50 in [3] was 100 nM.

These data come from patent US5079261A, “Use of lipoxin A4 and its derivatives as antagonists for slow-reacting substances of anaphylaxis” (Brigham and Women's Hospital, priority 1989, dated 1992).
